Experiment [1] addresses T1, human norepinephrine transporter (hNET) (Homo sapiens, UniProt P23975).
T1 construct: expressed in transfected cells; host or cells: HEK-293 cells (membrane preparation)
The experiment in a line: hNET receptor binding ([125I]-RTI-55 displacement, membranes of transfected HEK-293 cells). The note with it: HEK-293 membranes, Ki from IC50 by Cheng-Prusoff, read-out: NET Ki. An excerpt:
(§1) The ability of the compounds of the present invention to inhibit a norepinephrine transporter and/or a serotonin transporter can be determined using conventional radioligand receptor transport assays. The receptors can be heterologously expressed in cell lines and experiments conducted in membrane preparations from the cell lines that express a norepinephrine transporter and/or a serotonin transporter.
Cell pastes of HEK-293 cells transfected with a human norepinephrine transporter cDNA were prepared. The cell pastes were resuspended in 400 to 700 ml of Krebs-HEPES assay buffer (25 mM HEPES, 122 mM NaCl, 3 mM KCl, 1.2 mM MgSO4, 1.3 mM CaCl2, and 11 mM glucose, pH 7.4) with a Polytron homogenizer at setting 7 for 30 seconds. Aliquots of membranes (5 mg/ml protein) were stored in liquid nitrogen until used.
The binding assay was set up in Beckman deep-well polypropylene plates with a total volume of 250 μl containing: test compound (10^−5M to 10^−12M), cell membranes, and 50 pM [^125I]-RTI-55 (Perkin Elmer, NEX-272; specific activity 2200 Ci/mmol). The reaction was incubated by gentle agitation for 90 minutes at room temperature and was terminated by filtration through Whatman GF/C filter plates using a Brandel 96-well plate harvester. Scintillation fluid (100 μl) was added to each well, and bound [^125I]-RTI-55 was determined using a Wallac Trilux Beta Plate Counter. Test compounds were run in duplicate, and specific binding was defined as the difference between binding in the presence and absence of 10 μM desipramine.
Excel and GraphPad Prism software were used for data calculation and analysis. IC50 values were converted to Ki values using the Cheng-Prusoff equation. The Ki values (nM) for the hNET are reported below in Table 11.

The target in experiment [2] is T2, human serotonin transporter (hSERT) (Homo sapiens, UniProt P31645).
T2 construct: expressed in transfected cells; host or cells: HEK-293 cells (membrane preparation)
The experiment in a line: hSERT receptor binding ([125I]-RTI-55 displacement, membranes of transfected HEK-293 cells). The note with it: HEK-293 membranes, Ki from IC50 by Cheng-Prusoff, read-out: SERT Ki. Here is the method:
as §1
Cell pastes of HEK-293 cells transfected with a human serotonin transporter cDNA were prepared. The cell pastes were resuspended in 400 to 700 ml of Krebs-HEPES assay buffer (25 mM HEPES, 122 mM NaCl, 3 mM KCl, 1.2 mM MgSO4, 1.3 mM CaCl2, and 11 mM glucose, pH 7.4) with a Polytron homogenizer at Setting 7 for 30 seconds. Aliquots of membranes (˜2.5 mg/ml protein) were stored in liquid nitrogen until used.
Assays were set up in FlashPlates pre-coated with 0.1% PEI in a total volume of 250 μl containing: test compound (10^−5M to 10^−12M), cell membranes, and 50 pM [^125I]-RTI-55 (Perkin Elmer, NEX-272; specific activity 2200 Ci/mmol). The reaction was incubated and gently agitated for 90 minutes at room temperature, and terminated by removal of assay volume. Plates were covered, and bound [^125I]-RTI-55 was determined using a Wallac Trilux Beta Plate Counter. Test compounds were run in duplicate, and specific binding was defined as the difference between binding in the presence and absence of 10 μM citalopram.
Excel and GraphPad Prism software were used for data calculation and analysis. IC50 values were converted to Ki values using the Cheng-Prusoff equation. The Ki values (nM) for the hSERT are reported below in Table 11: […]

Where a name gives a salt, the structure may show the parent alone.

In US7423054B2, “Therapeutic pyrazolo[3,4-b]pyridines and indazoles” (Warner Lambert Company LLC, priority 2004, dated 2008) one finds Ki data, which are given here for 27 molecules.

T1 sequence (P23975 whole entry): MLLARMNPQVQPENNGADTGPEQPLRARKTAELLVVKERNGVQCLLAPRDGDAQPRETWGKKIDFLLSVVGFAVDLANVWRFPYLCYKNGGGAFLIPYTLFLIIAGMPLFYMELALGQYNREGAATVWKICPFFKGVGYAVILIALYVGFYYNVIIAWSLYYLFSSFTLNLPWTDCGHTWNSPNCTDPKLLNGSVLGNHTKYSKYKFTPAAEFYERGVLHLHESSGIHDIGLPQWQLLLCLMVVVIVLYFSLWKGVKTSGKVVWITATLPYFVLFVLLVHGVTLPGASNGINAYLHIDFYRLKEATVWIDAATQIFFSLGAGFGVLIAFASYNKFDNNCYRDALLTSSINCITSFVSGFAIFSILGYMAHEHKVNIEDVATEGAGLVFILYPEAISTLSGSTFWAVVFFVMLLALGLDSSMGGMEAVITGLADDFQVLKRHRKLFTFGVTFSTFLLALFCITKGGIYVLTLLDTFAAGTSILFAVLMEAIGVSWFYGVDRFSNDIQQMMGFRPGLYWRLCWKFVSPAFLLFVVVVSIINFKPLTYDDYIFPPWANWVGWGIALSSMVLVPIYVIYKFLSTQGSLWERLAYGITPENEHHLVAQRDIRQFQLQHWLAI
T2 sequence (P31645 whole entry): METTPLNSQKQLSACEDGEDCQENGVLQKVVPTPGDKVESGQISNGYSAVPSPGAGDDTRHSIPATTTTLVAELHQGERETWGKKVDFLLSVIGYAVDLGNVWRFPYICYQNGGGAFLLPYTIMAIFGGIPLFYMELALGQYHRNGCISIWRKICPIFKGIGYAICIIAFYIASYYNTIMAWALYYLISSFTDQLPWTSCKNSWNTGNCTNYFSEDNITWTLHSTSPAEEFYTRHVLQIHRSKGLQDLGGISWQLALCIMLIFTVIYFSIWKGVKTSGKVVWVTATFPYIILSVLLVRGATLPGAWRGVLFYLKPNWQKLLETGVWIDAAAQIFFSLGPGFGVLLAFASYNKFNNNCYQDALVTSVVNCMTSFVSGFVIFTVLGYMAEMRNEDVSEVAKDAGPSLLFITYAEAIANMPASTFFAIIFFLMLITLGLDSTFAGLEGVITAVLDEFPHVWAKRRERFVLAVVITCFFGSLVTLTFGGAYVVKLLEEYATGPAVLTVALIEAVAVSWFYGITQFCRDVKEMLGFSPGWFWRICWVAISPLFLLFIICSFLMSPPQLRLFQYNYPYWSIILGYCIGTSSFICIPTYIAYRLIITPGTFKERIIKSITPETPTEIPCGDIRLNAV

For orientation: Ki means the dissociation constant of the complex between target and ligand, obtained from inhibition or displacement. On to `Fc1ccc(F)c(-n2nc(OC3CCNCC3)c3cc(Cl)ccc32)c1` [Example 58, 5-Chloro-1-(2,5-difluoro-phenyl)-3-(piperidin-4-yloxy)-1H-indazole hydrochloride], for which the inhibition constant (Ki) in experiment [1] turned out to be 56 nM; in experiment [2], 134 nM.
In the same order, the values of `Cc1cccc2c(OC3CCNCC3)nn(-c3ccccc3)c12` [Example 59, 7-Methyl-1-phenyl-3-(piperidin-4-yloxy)-1H-indazole hydrochloride] are 69.1 nM and 32.7 nM.
The like results for `COc1cccc2c(OC3CCNCC3)nn(-c3ccccc3)c12` [Example 60, 7-Methoxy-1-phenyl-3-(piperidin-4-yloxy)-1H-indazole hydrochloride] were, in that order, 221 nM and 76.7 nM.
In the same order, the values of `Clc1cccc2c(OC3CCNCC3)nn(-c3ccccc3)c12` [Example 61, 7-Chloro-1-phenyl-3-(piperidin-4-yloxy)-1H-indazole hydrochloride] are 20.4 nM and 21.7 nM.
Turning to `Cc1cccc2c1c(OC1CCNCC1)nn2-c1ccccc1` [Example 62, 4-Methyl-1-phenyl-3-(piperidin-4-yloxy)-1H-indazole hydrochloride], the inhibitory constant (Ki) amounted to 495 nM in experiment [1] and 314 nM in experiment [2].
With `Fc1ccc2c(OC3CCNCC3)nn(-c3ccccc3F)c2c1` [Example 63, 6-Fluoro-1-(2-fluoro-phenyl)-3-(piperidin-4-yloxy)-1H-indazole hydrochloride], the inhibitory constant (Ki) was found to be 39.5 nM in experiment [1] and 19.4 nM in experiment [2].
As to `Clc1ccc2c(OC3CCNCC3)nn(-c3ccccc3)c2c1` [Example 64, 6-Chloro-1-phenyl-3-(piperidin-4-yloxy)-1H-indazole hydrochloride], the figures for the inhibition constant Ki in experiment [1] and in experiment [2] were 512 nM and 272 nM, respectively.
Regarding `Fc1ccccc1-n1nc(OC2CCNCC2)c2cccc(C(F)(F)F)c21` [Example 65, 1-(2-fluorophenyl)-3-(piperidin-4-yloxy)-7-(trifluoromethyl)-1H-indazole hydrochloride], the Ki in experiment [1] came out at 4330 nM; in experiment [2], 81.2 nM.
Turning to `Cc1ccc2c(OC3CCNCC3)nn(-c3ccccc3)c2c1` [Example 71, 6-Methyl-1-phenyl-3-(piperidin-4-yloxy)-1H-indazole hydrochloride], the Ki in experiment [1] came to 95.5 nM; in experiment [2], 20.5 nM.
Turning to `Cc1ccc2c(OC3CCNCC3)nn(-c3ccccc3F)c2c1` [Example 72, 1-(2-Fluoro-phenyl)-6-methyl-3-(piperidin-4-yloxy)-1H-indazole hydrochloride], the Ki was 27.4 nM in experiment [1] and 9.76 nM in experiment [2].
In the same order, the values of `Fc1ccccc1-n1nc(OCC2CCCNC2)c2cc(Cl)ccc21` (stereo not drawn) [Example 73, 5-Chloro-1-(2-fluoro-phenyl)-3-(piperidin-3-ylmethoxy)-1H-indazole hydrochloride] are 29.3 nM and 304 nM.
As for `Cc1ccc2c(OCC3CCCNC3)nn(-c3ccccc3F)c2c1` (stereo not drawn) [Example 74, 1-(2-Fluoro-phenyl)-6-methyl-3-(piperidin-3-ylmethoxy)-1H-indazole hydrochloride], the figures for the Ki in experiment [1] and in experiment [2] were 60.5 nM and 792 nM, respectively.
In the same order, the values of `Fc1cc2c(OC3CCNCC3)nn(-c3ccccc3F)c2cc1F` [Example 75, 5,6-Difluoro-1-(2-fluoro-phenyl)-3-(piperidin-4-yloxy)-1H-indazole hydrochloride] are 36.4 nM and 39.8 nM.
`Fc1cc2c(OCC3CCCNC3)nn(-c3ccccc3F)c2cc1F` (stereo not drawn) [Example 76, 5,6-Difluoro-1-(2-fluoro-phenyl)-3-(piperidin-3-ylmethoxy)-1H-indazole hydrochloride]: the Ki in experiment [1] was 40.4 nM; in experiment [2], 158 nM.
On to `Fc1cccc(-n2nc(OC3CCNCC3)c3cc(F)ccc32)c1` [Example 77, 5-Fluoro-1-(3-fluoro-phenyl)-3-(piperidin-4-yloxy)-1H-indazole hydrochloride], for which the inhibition constant (Ki) was found to be 24.8 nM in experiment [1] and 49.5 nM in experiment [2].
In the case of `Fc1cccc(-n2nc(OC[C@H]3CCCNC3)c3cc(F)ccc32)c1` [Example 78, (S)-5-Fluoro-1-(3-fluoro-phenyl)-3-(piperidin-3-ylmethoxy)-1H-indazole hydrochloride], the Ki turned out to be 10.2 nM in experiment [1] and 39.9 nM in experiment [2].
`Fc1ccc(-n2nc(OC3CCNCC3)c3cc(F)ccc32)cc1` [Example 79, 5-Fluoro-1-(4-fluoro-phenyl)-3-(piperidin-4-yloxy)-1H-indazole hydrochloride]: the inhibition constant (Ki) in experiment [1] stood at 32.8 nM; in experiment [2], 23.7 nM.
Turning to `Fc1ccc(-n2nc(OC[C@H]3CCCNC3)c3cc(F)ccc32)cc1` [Example 80, (S)-5-Fluoro-1-(4-fluoro-phenyl)-3-(piperidin-3-ylmethoxy)-1H-indazole hydrochloride], the Ki in experiment [1] was determined as 15 nM; in experiment [2], 23.9 nM.
The like results for `Fc1cccc(-n2nc(OC3CCNCC3)c3c(F)cccc32)c1` [Example 81, 4-Fluoro-1(3-fluoro-phenyl)-3-(piperidin-4-yloxy)-1H-indazole hydrochloride] were, in that order, 49.8 nM and 449 nM.
In the same order, the values of `Fc1cccc(-n2nc(OC[C@H]3CCCNC3)c3c(F)cccc32)c1` [Example 82, (S)-4-Fluoro-1-(3-fluoro-phenyl)-3-(piperidin-3-ylmethoxy)-1H-indazole hydrochloride] are 23.2 nM and 635 nM.
In the same order, the values of `Fc1ccc(-n2nc(OC3CCNCC3)c3c(F)cccc32)cc1` [Example 83, 4-Fluoro-1-(4-fluoro-phenyl)-3-(piperidin-4-yloxy)-1H-indazole hydrochloride] are 49.3 nM and 191 nM.
`Fc1ccc(-n2nc(OC[C@H]3CCCNC3)c3c(F)cccc32)cc1` [Example 84, (S)-4-Fluoro-1-(4-fluoro-phenyl)-3-(piperidin-3-ylmethoxy)-1H-indazole hydrochloride]: the Ki in experiment [1] was 38.1 nM; in experiment [2] it was 487 nM.
The like results for `Fc1ccccc1-n1nc(OC[C@H]2CCCNC2)c2c(F)cccc21` [Example 85, (S)-4-Fluoro-1-(2-fluoro-phenyl)-3-(piperidin-3-ylmethoxy)-1H-indazole hydrochloride] were, in that order, 12.5 nM and 1010 nM.
As to `Fc1cc2c(OCC3CCCNC3)nn(-c3ccccc3)c2cc1F` (stereo not drawn) [Example 86, 5,6-Difluoro-1-phenyl-3-(piperidin-3-ylmethoxy)-1H-indazole hydrochloride], the Ki in experiment [1] came out at 114 nM; in experiment [2] it was 101 nM.
The like results for `Fc1cc2c(OC3CCNCC3)nn(-c3ccccc3)c2cc1F` [Example 87, 5,6-Difluoro-1-phenyl-3-(piperidin-4-yloxy)-1H-indazole hydrochloride] were, in that order, 197 nM and 57 nM.
In the case of `Fc1ccc(-n2nc(OC3CCNCC3)c3c(F)cccc32)c(F)c1` [Example 88, 1-(2,4-Difluoro-phenyl)-4-fluoro-3-(piperidin-4-yloxy)-1H-indazole hydrochloride], the figures for the Ki in experiment [1] and in experiment [2] were 16.3 nM and 88.1 nM, respectively.
In the same order, the values of `Fc1ccc(-n2nc(OC[C@H]3CCCNC3)c3c(F)cccc32)c(F)c1` [Example 89, (S)-1-(2,4-Difluoro-phenyl)-4-fluoro-3-(piperidin-3-ylmethoxy)-1H-indazole hydrochloride] are 22.4 nM and 403 nM.
